Marks after values point to notes of the source that are not given here.
Assays:
PBMCs = experiment: LPS-induced IL-8 release in PBMC cells; assay type: cell-based; settings: Homo sapiens, LPS-stimulated PBMCs, read-out: IC50 Values for Inhibition of Cytokine Release PBMCs IL-8
How it was run: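 Healthy-donor PBMCs isolated by density gradient were pretreated with compound for 2 h, then stimulated with 1 ng/mL LPS (E. coli 0111:B4) for 24 h at 37° C., 5% CO2. IL-8 and TNFα in supernatants measured by sandwich ELISA.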

Jurkat cells = experiment: Cell cytotoxicity assay (Jurkat cell viability); assay type: cell-based, human; settings: 24 hours
Protocol: 1×10^5 Jurkat cells (immortalised human T lymphocytes) are added to the appropriate number of wells of a 96 well plate in 100 μL of media (RPMI supplemented with 10% foetal bovine serum). 1 μL of DMSO control (final concentration 1.0% v/v) or test compound (final concentration 20, 5 or 1 μg/mL) is added to the wells and incubated at 37° C., 5% CO2. After 24 hours, the plate is centrifuged at 1200 rpm for 3 minutes and the supernatant discarded. Cells are then resuspended in 150 μL (final concentration 7.5 μg/mL) of propidium iodide (PI) in PBS and incubated at 37° C., 5% CO2 for 15 minutes. After 15 minutes, cells are analysed by flow cytometry (BD accuri) using the FL3 window. The % viability is calculated as the % of cells that are PI negative in the test wells normalised to the DMSO control.

Syk = biological target: T1, Syk (Homo sapiens, UniProt P43405); experiment: Syk enzyme inhibition, FRET Z-LYTE; assay type: biochemical
T1 construct: purchased Invitrogen
Protocol: (§1) The enzyme inhibitory activities of compounds disclosed herein are determined by FRET using synthetic peptides labelled with both donor and acceptor fluorophores (Z-LYTE, Invitrogen Ltd., Paisley, UK).
(§2) The inhibitory activities of compounds of the invention against c-Src and Syk enzymes (Invitrogen), are evaluated in a similar fashion to that described hereinabove. The relevant enzyme (3000 ng/mL or 2000 ng/mL respectively, 2.5 μL) is incubated with the test compound (either 4 μg/mL, 0.4 μg/mL, 0.04 μg/mL, or 0.004 μg/mL, 2.5 μL each) for 2 hr at RT. The FRET peptides (8 μM, 2.5 μL), and appropriate ATP solutions (2.5 μL, 800 μM for c-Src, and 60 μM ATP for Syk) are then added to the enzymes/compound mixtures and incubated for 1 hr. Development reagent (protease, 5 μL) is added for 1 hr prior to detection in a fluorescence microplate reader (Varioskan® Flash, ThermoFisher Scientific).
(§3) In all cases, the site-specific protease cleaves non-phosphorylated peptide only and eliminates the FRET signal. Phosphorylation levels of each reaction are calculated using the ratio of coumarin emission (donor) over fluorescein emission (acceptor), for which high ratios indicate high phosphorylation and low ratios indicate low phosphorylation levels.

c-Src = biological target: T2, c-Src (Homo sapiens, UniProt P12931); experiment: c-Src enzyme inhibition, FRET Z-LYTE; assay type: biochemical
T2 construct: purchased Invitrogen
Protocol: as §1, §2, §3

p38 MAPKα = biological target: T3, p38 MAPKα (Homo sapiens, UniProt Q16539); experiment: p38 MAPKα enzyme inhibition (Method 2), FRET Z-LYTE; assay type: biochemical
T3 construct: purchased Invitrogen
Protocol: as §1
The inhibitory activities of test compounds against the p38 MAPKα isoform (MAPK14: Invitrogen), are evaluated indirectly by determining the level of activation/phosphorylation of the down-stream molecule, MAPKAP-K2. The p38 MAPKα protein (80 ng/mL, 2.5 μL) is mixed with the test compound (2.5 μL of either 4 μg/mL, 0.4 μg/mL, 0.04 μg/mL or 0.004 μg/mL) for 2 hr at RT. […] The mixture is incubated for 1 hr at RT. Development reagent (protease, 5 μL) is added for 1 hr prior to detection in a fluorescence microplate reader (Varioskan® Flash, ThermoFisher Scientific).
This method follows the same steps as Method 1 above, but utilises a higher concentration of the p38 MAPKα protein (2.5 μL of 200 ng/mL protein instead of 2.5 μL of 80 ng/mL protein) for mixing with the test compound.
as §3

GSK3α = biological target: T4, GSK3α (Homo sapiens, UniProt P49840); experiment: GSK3α enzyme inhibition (Method 2), FRET Z-LYTE; assay type: biochemical
T4 construct: purchased Invitrogen
Protocol: as §1
The inhibitory activities of compounds of the invention against the GSK 3α enzyme isoform (Invitrogen), are evaluated by determining the level of activation/phosphorylation of the target peptide. The GSK3-α protein (500 ng/mL, 2.5 μL) is mixed with the test compound (2.5 μL at either 4 μg/mL, 0.4 μg/mL, 0.04 μg/mL, or 0.004 μg/mL) for 2 hr at RT. The FRET peptide (8 μM, 2.5 μL), which is a phosphorylation target for GSK3α, and ATP (40 μM, 2.5 μL) are then added to the enzyme/compound mixture and the resulting mixture incubated for 1 hr. Development reagent (protease, 5 μL) is added for 1 hr prior to detection in a fluorescence microplate reader (Varioskan® Flash, ThermoFisher Scientific).
as §3
This method follows the same steps as Method 1 above, but utilises a shorter period of mixing of the test compound (105 minutes instead of 2 hours) with the GSK3-α protein.

[1] = Hydrolytic stability study; assay type: physicochemical; settings: DMSO/water (3:1); for % Parent Remaining, cumulative average from multiple experiments / % Parent Remaining: 1 mg/mL; for % Parent Remaining: experiment in which Example 2 was tested
Protocol: Chemical stability of compounds of the invention was assessed in a mixture of DMSO and water (3:1) at a test compound concentration of 1 mg/mL
General HPLC Procedure • Agilent, Waters X-Select C18, 2.5 μm, 4.6×30 mm column, 4 min method, 5-95% • MeCN/water (0.1% formic acid). • Flow rate 2.5 ml/min. • Column Oven Temperature 40° C. • Detection 254 nm.
Sample Preparation • A 1.0 mg sample of test compound was dissolved in 1 mL of DMSO/water (3:1) and the resulting mixture was stirred at rt overnight.
Recording Stability • A 50 μL aliquot of the test solution was removed and analysed in duplicate by 5 μL HPLC injections. The peak area for the test compound (taken to be 100% product, 0% degradation) was recorded following manual integration of the corresponding UV trace. The area retention time was also recorded. • The test solution was heated to 60° C. internal temperature (65° C. block temperature), with stirring, and timing commenced once the target temperature had been reached. After 5 and 24 h, samples were removed and analysed by HPLC (5 μL injections). In all cases, 5 μL injections were used and the samples analysed in duplicate. • The peak areas for the test compounds were recorded at both subsequent timepoints and the % decomposition calculated from the % change in peak area over time.

T4 sequence (P49840 whole entry): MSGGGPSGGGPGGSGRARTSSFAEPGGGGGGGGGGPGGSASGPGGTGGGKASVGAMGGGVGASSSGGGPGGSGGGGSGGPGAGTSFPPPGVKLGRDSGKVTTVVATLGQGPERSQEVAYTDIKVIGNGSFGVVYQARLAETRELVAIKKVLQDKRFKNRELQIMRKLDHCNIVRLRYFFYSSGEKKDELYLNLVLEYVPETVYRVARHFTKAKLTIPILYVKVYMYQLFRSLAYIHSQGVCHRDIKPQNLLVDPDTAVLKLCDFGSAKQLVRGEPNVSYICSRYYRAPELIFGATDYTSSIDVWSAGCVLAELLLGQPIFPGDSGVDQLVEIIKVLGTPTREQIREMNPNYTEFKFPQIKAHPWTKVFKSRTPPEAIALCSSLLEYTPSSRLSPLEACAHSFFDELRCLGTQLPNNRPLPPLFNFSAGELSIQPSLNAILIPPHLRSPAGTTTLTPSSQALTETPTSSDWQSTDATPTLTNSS
T3 sequence (Q16539 whole entry): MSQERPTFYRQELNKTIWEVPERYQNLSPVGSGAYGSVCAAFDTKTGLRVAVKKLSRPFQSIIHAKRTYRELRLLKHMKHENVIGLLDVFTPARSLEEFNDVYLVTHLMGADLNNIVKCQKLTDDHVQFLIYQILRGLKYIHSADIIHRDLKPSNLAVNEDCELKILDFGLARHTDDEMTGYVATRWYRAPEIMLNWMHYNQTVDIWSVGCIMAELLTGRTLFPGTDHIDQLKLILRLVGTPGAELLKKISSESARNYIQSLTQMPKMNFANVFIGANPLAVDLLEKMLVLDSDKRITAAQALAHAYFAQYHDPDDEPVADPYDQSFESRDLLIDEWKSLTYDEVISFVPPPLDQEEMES
T2 sequence (P12931 whole entry): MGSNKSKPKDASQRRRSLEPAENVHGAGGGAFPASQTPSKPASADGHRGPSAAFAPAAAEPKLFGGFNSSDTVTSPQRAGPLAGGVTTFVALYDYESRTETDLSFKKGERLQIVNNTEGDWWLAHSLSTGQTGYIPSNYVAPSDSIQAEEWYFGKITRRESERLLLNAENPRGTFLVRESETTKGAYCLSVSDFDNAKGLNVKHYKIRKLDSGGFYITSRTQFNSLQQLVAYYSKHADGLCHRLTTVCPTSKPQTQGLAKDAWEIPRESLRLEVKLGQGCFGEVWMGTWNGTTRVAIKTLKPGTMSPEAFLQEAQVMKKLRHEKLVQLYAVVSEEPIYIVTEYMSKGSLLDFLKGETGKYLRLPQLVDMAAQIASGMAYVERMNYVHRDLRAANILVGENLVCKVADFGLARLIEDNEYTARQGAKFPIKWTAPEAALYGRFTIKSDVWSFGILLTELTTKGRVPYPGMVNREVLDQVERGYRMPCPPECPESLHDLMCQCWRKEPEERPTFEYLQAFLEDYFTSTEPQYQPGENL

Compound | IC50 (PBMCs) | % Viability at 1 μg/mL (Jurkat cells) | % Viability at 5 μg/mL (Jurkat cells) | % Viability at 20 μg/mL (Jurkat cells) | also measured
COc1cc(Nc2ncc3cc(-c4cc(C(=O)Nc5cc(C(C)(C)C)cc(NS(C)(=O)=O)c5OC)ccc4C)ccc3n2)ccc1C(=O)N(C)CCN1CCOCC1 [Example 9, 4-((6-(5-((5-(tert-Butyl)-2-methoxy-3-(methylsulfonamido)phenyl)carbamoyl)-2-methylphenyl)quinazolin-2-yl)amino)-2-methoxy-N-methyl-N-(2-morpholinoethyl)benzamide] | 3.1 nM | 63.0% | 38.4% | 28.7% | –
COCCOCCOCCOc1cc(Nc2ncc3cc(-c4cc(C(=O)Nc5cccc(C(F)(F)F)c5)ccc4C)ccc3n2)cc(OC)c1 [Example 1, 3-(2-((3-Methoxy-5-(2-(2-(2-methoxyethoxy)ethoxy)ethoxy)phenyl)amino)quinazolin-6-yl)-4-methyl-N-(3-(trifluoromethyl)phenyl)benzamide] | 134 nM | – | – | – | IC50 (Syk): > 1450 nM; IC50 (c-Src): 14 nM; IC50 (p38 MAPKα): 776 nM; IC50 (GSK3α): > 14500 nM
COc1cc(Nc2ncc3cc(-c4cc(C(=O)Nc5cc(C(C)(C)C)cc(P(C)(C)=O)c5OC)ccc4C)ccc3n2)cc(C(=O)NCCN2CCOCC2)c1 [Example 4, N-(5-(tert-Butyl)-3-(dimethylphosphoryl)-2-methoxyphenyl)-3-(2-((3-methoxy-5-((2-morpholinoethyl)carbamoyl)phenyl)amino)quinazolin-6-yl)-4-methylbenzamide] | 14.8 nM | – | – | – | IC50 (GSK3α): > 12800 nM
COCC(=O)Nc1cc(Oc2ccc(NC(=O)Nc3cc(C(C)(C)C)nn3-c3ccc(C)cc3)c3ccccc23)ccn1 [Reference Compound A, N-(4-(4-(3-(3-tert-butyl-1-p-tolyl-1H-pyrazol-5-yl)ureido)naphthalen-1-yloxy)pyridin-2-yl)-2-methoxyacetamide, reference compound] | – | 23.5% | 18.9% | 17.3% | –
C#Cc1cc(Nc2ncc3cc(-c4cc(C(=O)Nc5cc(C(C)(C)C)cc(NS(C)(=O)=O)c5OC)ccc4C)ccc3n2)cc(C(=O)NCCOCCOCCOC)c1 [14(g), N-(5-(tert-Butyl)-2-methoxy-3-(methylsulfonamido)phenyl)-3-(2-((3-ethynyl-5-((2-(2-(2-methoxyethoxy)ethoxy)ethyl)carbamoyl)phenyl)amino)quinazolin-6-yl)-4-methylbenzamide] | 17.3 nM | 110.1% | 75.5% | 65.4% | –
COc1c(NC(=O)c2ccc(C)c(-c3ccc4nc(Nc5cccc(CP(C)(C)=O)c5)ncc4c3)c2)cc(C(C)(C)C)cc1NS(C)(=O)=O [14(i), N-(5-(tert-Butyl)-2-methoxy-3-(methylsulfonamido)phenyl)-3-(2-((3-((dimethylphosphoryl)methyl)phenyl)amino)quinazolin-6-yl)-4-methylbenzamide] | 6.9 nM | 69.8% | 8.4% | 2.1% | –
COc1cc(Nc2ncc3cc(-c4cc(C(=O)Nc5cc(C(C)(C)C)cc(NS(C)(=O)=O)c5OC)ccc4C)ccc3n2)ccc1C(=O)O [Example 8, 4-((6-(5-((5-(tert-Butyl)-2-methoxy-3-(methylsulfonamido)phenyl)carbamoyl)-2-methylphenyl)quinazolin-2-yl)amino)-2-methoxybenzoic acid] | 4 nM | 91.1% | 65.8% | 30.6% | –
C#Cc1cc(Nc2nccc(Oc3ccc(NC(=O)Nc4cc(C(C)C)nn4-c4ccc(C)cc4)c4ccccc34)n2)cc(C(=O)NCCN2CCOCC2)c1 [Reference Compound B, 3-ethynyl-5-((4-((4-(3-(3-isopropyl-1-(p-tolyl)-1H-pyrazol-5-yl)ureido)naphthalen-1-yl)oxy)pyrimidin-2-yl)amino)-N-(2-morpholinoethyl)benzamide] | – | – | – | – | % Parent Remaining, cumulative average from multiple experiments ([1]; 60° C., 300 min): 71.0%; % Parent Remaining ([1]; 60° C., 300 min): 93.3%; % Parent Remaining, cumulative average from multiple experiments ([1]; 60° C., 1440 min): 26.0%; % Parent Remaining ([1]; 60° C., 1440 min): 52.3%; % Parent Remaining, cumulative average from multiple experiments ([1]; time 0 min): 100^a (100^b) %; % Parent Remaining ([1]; time 0 min): 100^a (100^b) %; decomposition under the conditions of the hydrolytic stability experiment, in words ([1]; 60° C.): underwent substantial decomposition
COc1c(NC(=O)c2ccc(C)c(-c3ccc4nc(Nc5ccc(N=S(C)(C)=O)cc5)ncc4c3)c2)cc(C(C)(C)C)cc1NS(C)(=O)=O [Example 7, N-(5-(tert-Butyl)-2-methoxy-3-(methylsulfonamido)phenyl)-3-(2-((4-((dimethyl(oxo)-I6-sulfanylidene)amino)phenyl)amino)quinazolin-6-yl)-4-methylbenzamide] | 3.8 nM | 79.0% | 54.7% | 49.7% | –
